Reference: patent publication US9186421B2, “Establishment of rhesus monkey model of autoimmunity type 1 diabetes” (West China Hospital, Sichuan University, priority 2010, dated 2015)

Experiments:
[1] = test system: rhesus monkeys; assay: Diabetes model prepared by low dose STZ induction; type: in vivo, rhesus monkey
Protocol: Low dose of STZ was administered intravenously for 5 consecutive days, at a dose of 15-30 mg/kg per time; and administrated again on the 7th day and 14th day after last administration. Fasting glucose was observed once each week.
6 rhesus monkeys were used to prepare models according to the method of the present invention and 4 models were successfully prepared. […]

[2] = test system: rhesus monkey model of autoimmune type 1 diabetes; assay: Insulin treatment of the rhesus monkey model of autoimmune type 1 diabetes; type: in vivo
Protocol: At present, insulin injection is the main treatment method of autoimmune type 1 diabetes. Insulin was applied to the rhesus monkey model of autoimmune type 1 diabetes in this experiment. The specific way was as follows:
1. According to the habit of eating twice per day of rhesus monkeys, different types of insulin were injected twice a day (9:30 am & 17:30 pm) in different doses, applied to the autoimmune type 1 diabetes model prepared by Example 1 of the present invention: combined treatment of (1) long-acting insulin: porcine insulin (protamine zinc insulin) produced by Wanbang Company (Xuzhou, China) and (2) short-acting insulin: ordinary porcine insulin produced by Wanbang Company (Xuzhou, China).
2. Initially, low dose of insulin (0.4 U/kg) was injected subcutaneously so as to avoid the occurrence of low blood glucose.
3. The fasting and postprandial glucose levels were monitored. The administration dosage was adjusted according to the blood glucose level, finally allowing the fasting and postprandial blood glucose to be less than 10 mmol/L and glycosylated hemoglobin to be less than 6.5%.

[3] = established model after low dose STZ i.v.
[4] = insulin s.c. twice a day, start 0.4 U/kg, dosage adjusted to blood glucose

Compound | fasting blood glucose, fluctuation ([1]; after intravenous injection of STZ, 20 or 25 mg/kg per time, days 1-5, 12, 19) [mmol/L] | fasting blood glucose, consistently [1, 3] | serum C-peptide [1, 3] | glucagon expression-positive cells in the islet tissue ([1]; immunohistochemistry, FIG. 3B) | models successfully prepared ([1]; of 6 rhesus monkeys) | fasting and postprandial blood glucose [2, 4] | glycosylated hemoglobin [2, 4] | therapeutic effect on autoimmune type 1 diabetes ([2]; long-acting plus short-acting porcine insulin)
CN(N=O)C(=O)N[C@@H](C=O)[C@@H](O)[C@H](O)[C@H](O)CO [STZ, Streptozotocin] | 3.2 to 17.6 | higher than 11.1 mmol/L | less than 0.3 nM | above 90% | 4 | – | – | –
Insulin: combined treatment of long-acting porcine insulin (protamine zinc insulin) and short-acting ordinary porcine insulin, Wanbang Company | – | – | – | – | – | less than 10 mmol/L | less than 6.5% | better therapeutic effect
